Source: publication PMC12967844 (Engineering Microbiology, 2025)

Target: PtlI (pentalenene oxygenase) (Streptomyces avermitilis, UniProt Q82IY3)
Settings: E. coli co-expressing penA; substrate made in the cell; endogenous E. coli redox proteins

Chain of PtlI (pentalenene oxygenase) (Q82IY3 whole entry): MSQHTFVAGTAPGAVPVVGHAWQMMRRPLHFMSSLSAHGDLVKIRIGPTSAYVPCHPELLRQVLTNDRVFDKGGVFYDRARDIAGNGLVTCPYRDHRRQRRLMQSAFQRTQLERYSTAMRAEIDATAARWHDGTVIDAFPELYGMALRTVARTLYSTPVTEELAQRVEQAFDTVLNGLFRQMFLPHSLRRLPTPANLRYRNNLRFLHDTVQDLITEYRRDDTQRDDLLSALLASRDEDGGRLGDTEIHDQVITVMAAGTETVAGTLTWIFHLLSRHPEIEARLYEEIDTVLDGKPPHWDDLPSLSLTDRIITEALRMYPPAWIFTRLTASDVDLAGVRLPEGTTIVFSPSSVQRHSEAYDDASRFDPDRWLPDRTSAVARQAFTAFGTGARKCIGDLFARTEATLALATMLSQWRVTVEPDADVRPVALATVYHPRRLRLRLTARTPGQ

## CC1=C[C@@H]2CC(C)(C)C[C@@]23[C@H](C)CC[C@@H]13 [compound 3, pentalenene]
  GC-MS of culture extracts, heterologous expression in E. coli: PtlI can catalyze a three-step oxidation in the cell
